Residues, ends and D or L forms follow the SMILES beside them.
How the values were obtained:
[1] = FEBS LET. 383:18 (1996); cited from earlier work
[2] = Forward looking example: Metabolic Syndrome patient with chronic environmental antigen stimulation; type: in vivo, human; settings: sublingual once every two weeks, with diet, exercise, ACE Inhibitor, Fluconazole; over a year
Text: The further application of the instant invention is illustrated by the following forward looking examples.
• A young person presents to their physician, on annual physical examination, with a weight gain of 50 pounds, is found to have high blood pressure, and reports vaginal pruritis. Over the past few years, they have lived in an area of major traffic congestion (near an oil refinery). The physician does a physical examination and discovers unusual black pigmented areas in their neck creases (acanthosis nigricans) and orders laboratory tests, including fasting and 2-hour blood glucose, serum triglycerides, serum insulin, a cholesterol profile, C-Reactive Protein, serum fibrinogen, and a vaginal smear for candidiasis. • They are found to have impaired glucose tolerance, elevated serum triglycerides, low HDL and high […] and high C-Reactive Protein and fibrinogen levels. Their vaginal smear is positive for candida albicans. • The physician knows that they are seeing a case of the Metabolic Syndrome which progresses to Diabetes Mellitus and Coronary Heart Disease. They prescribe a weight reduction diabetic diet, physical exercise, an ACE Inhibitor, and Fluconazole. […] They continue their diet and physical exercise and loses weight. They require less high blood pressure medication. The physician continues to monitor their cell-mediated immune function, blood glucose levels, lipid profile, and measures of inflammation, and adjusts their medications appropriately. • The patient continues to lose weight to reach their target weight, blood pressure is controlled, blood glucose is normalized, and their risk of diabetes mellitus and coronary heart disease is reduced.

SMILES	Immunological activity in vitro [1]	Blood glucose [2]	C-Reactive Protein [2]	Cholesterol level [2]
N[C@@H](Cc1ccc(O)cc1)C(=O)NCC(=O)NCC(=O)O [YGG, L-tyrosylglycylglycine] (H-Tyr-Gly-Gly-OH)	immunologically active	–	–	–
N[C@@H](Cc1ccc(O)cc1)C(=O)NCC(=O)O [YG, L-tyrosylglycine]	immunologically active	changes toward normal	reduced	reduced

From patent US7632818B2, “Method for treating conditions associated with the Metabolic Syndrome (Syndrome X)” (priority 2003, dated 2009)
